ChEMBL document CHEMBL3272201, “Synthesis of tetrazole ribonucleosides and their evaluation as antiviral agents” (J Med Chem, 1976)
The source made the active and inactive calls. The rule behind the calls is not given here.

Legend:
Assay type in all cases: functional, organism-based
Influenza A virus [1] = test: (§1) Antiviral activity against Influenza A virus (A2/Asian/J305) infected in Swiss albino mouse assessed as increase in host survival at 20 mg/kg, ip administered 4 hrs before infection, 1 hr after infection followed by twice daily for next 6 days for total of 14 treatments measured on 21st day post-infection; parameters: dose 20 mg/kg
Influenza A virus [2] = test: as §1, with “100” for “20”; parameters: dose 100 mg/kg
Influenza A virus [3] = test: as §1, with “25” for “20”; parameters: dose 25 mg/kg

| Compound | Activity (Influenza A virus [2]) | also measured |
| --- | --- | --- |
| NC(=O)c1ncn([C@@H]2O[C@H](CO)[C@@H](O)[C@H]2O)n1 | – | Activity (Influenza A virus [1]): Active |
| OC[C@H]1O[C@@H](n2cnnn2)[C@H](O)[C@@H]1O | inactive | – |
| NC(=O)Cc1nnnn1[C@@H]1O[C@H](CO)[C@@H](O)[C@H]1O | – | Activity (Influenza A virus [3]): inactive |
| NC(=O)c1nnnn1[C@@H]1O[C@H](CO)[C@@H](O)[C@H]1O | inactive | – |
